Tests used:
[1] = tested on: EV71; test: ELISA, biotin-labeled monosaccharide-PAA binding to EV71 captured on anti-EV71 antibody plate; set-up: species or system Enterovirus 71; details: OD450; for binding of EV71 to monosaccharide (FIG. 1A): 10^6 PFU of EV71, biotin-labeled monosaccharide-PAA, compared to control without viruses or 10^6 PFU Dengue viruses; for binding activity between EV71 and monosaccharide versus amount of EV71 (FIG. 1B): 10 fold serial dilution of EV71 from 10^6 PFU to 10^2 PFU
Protocol: Enzyme-linked immunosorbent assay (ELISA) was used to detect the binding activities between EV71 and monosaccharides in the present embodiment. First, EV71 was added into a 96-well plate (Genesis, Taiwan) and bound to anti-EV71 antibody coated on the 96-well plate. Then, biotin-labeled monosaccharide polymers, such as glucose-PAA (polyacrylamide), mannose-PAA, galactose-PAA, N-acetyl-galactosamine-PAA (GalNAc-PAA), and N-acetyl-glucosamine-PAA (GlcNAc-PAA) were added into the 96-well plate, and reacted with EV71 at room temperature.

[2] = biological target: EV71 binding to galectin-1 (Homo sapiens, UniProt P09382); test: ELISA, competition of monosaccharides with EV71 binding to galectin-1; set-up: species or system Enterovirus 71; details: EV71 incubated with the sugar at different concentrations at 4° C. for 2 hours; galectin-1 coated plate
Protocol: ELISA was used to detect the competition between monosaccharides and EV71 or lectins. First, EV71 was incubated in a medium supplemented with galactose, glucose, N-acetyl galactosamines, sucrose, or mannose with different concentration (conc.) at 4° C. for 2 hours. […] It is because the monosaccharides bound on the EV71 may first bind to lectins, so the binding between lectins and EV71 may further be inhibited.

[3] = tested on: EV71 on SK-N-SH cells; test: Plaque assay, EV71 replication on SK-N-SH cells with monosaccharides; format: cell-based, Enterovirus 71; details: EV71 incubated with 0.625 M, 0.125M, 0.25M sugar, 72 hours; for production of EV71 on SK-N-SH cells, virus titer (FIG. 4A): 1 hour at 37° C., no wash; for production of EV71 on SK-N-SH cells, absorption stage (FIG. 4B): unbound viruses washed away by PBS after 1 hour
Protocol: Plaque assay was used to understand the relation between the monosaccharides and the replication of EV71 in the present embodiment.
Host cells, SK-N-SH cells (2×10^5 cells/well), were seeded in a 24-well plate, and incubated for 16-18 hours to form a monolayer cell. SK-N-SH cells were infected with EV71, which was incubated with different concentrations of glucose, galactose or N-acetylgalactosamine (0.625 M, 0.125M, and 0.25M). After 1 hour incubation at 37° C., DMEM with 1.6% methylcellulose and 2% FBS was added to incubate at 37° C. for 72 hours.
First, SK-N-SH cells were infected with EV71, which were incubated with different concentrations of glucose, galactose or N-acetylgalactosamine (0.625 M, 0.125M, and 0.25M). After 1 hour incubation at 37° C., unbound viruses were washed away by PBS, DMEM with 1.6% methylcellulose and 2% FBS was added to incubate at 37° C. for 72 hours.
In addition, SK-N-SH cells were infected with EV71 in a glucose-containing medium. After 1 hour incubation at 37° C., viruses, which were unbound on the 24-well plate were washed away with PBS. Then, the infected host cells were incubated in a medium containing 0.25M glucose or galactose (supplemented with 1.6% methylcellulose and 2% FBS) at 37° C. for 72 hours.

[4] = tested on: EV71; test: ELISA, EV71 binding to monosaccharide-PAA coated plate; set-up: species or system Enterovirus 71; details: OD450; for specific binding to EV71 (FIG. 1D): 10^6 PFU EV71, plate coated with monosaccharide-PAA, versus control without EV71
Protocol: ELISA was also performed to detect the binding activities between EV71 and monosaccharides in the present embodiment, and the process of ELISA of the present embodiment is similar to that of Embodiment 1.
(§1) In addition, specific bindings between different enteroviruses and monosaccharides were also detected. First, 10^6 PFU of enteroviruses, EV71, Coxsackievirus A16 (CA16), Coxsackievirus B3 (Cox B3, CB3), and Coxsackievirus B2 (Cox B2, CB2), were added in to a 96-well plate coated with glucose-PAA and galactose-PAA.

[5] = tested on: Coxsackievirus B2 (Cox B2, CB2); test: ELISA, CB2 binding to monosaccharide-PAA coated plate; details: 10^6 PFU; plate coated with glucose-PAA or galactose-PAA; OD450
Protocol: as §1

[6] = tested on: Coxsackievirus B3 (Cox B3, CB3); test: ELISA, CB3 binding to monosaccharide-PAA coated plate; details: 10^6 PFU; plate coated with glucose-PAA or galactose-PAA; OD450
Protocol: as §1

[7] = tested on: Coxsackievirus A16 (CA16); test: ELISA, CA16 binding to monosaccharide-PAA coated plate; details: 10^6 PFU; plate coated with glucose-PAA or galactose-PAA; OD450
Protocol: as §1

[8] = tested on: CA16; test: ELISA, CA16 binding to galectin-1 coated plate; set-up: species or system Coxsackievirus A16; details: 10^6 PFU of virus, OD450
[9] = tested on: dengue virus (DV); test: ELISA, dengue virus binding to galectin-1 coated plate; details: 10^6 PFU of virus, OD450
Protocol: In addition, 106 PFU of different viruses including EV71, CA16, influenza virus (Flu) or dengue virus (DV) were added into a 96-well plate coated with galactin-1. Then, anti-EV71 antibody and HRP-conjugated goat anti-mouse IgG antibody were sequentially added into the 96-well plate.

[10] = tested on: influenza virus (Flu); test: ELISA, influenza virus binding to galectin-1 coated plate; details: 10^6 PFU of virus, OD450
[11] = tested on: EV71; test: ELISA, EV71 binding to galectin-1 coated plate; set-up: species or system Enterovirus 71
Protocol: Except the aforementioned lectins, the binding activity between EV71 and mammalian lectin such as galectin-1 was also detected in the present embodiment. First, a different amount of EV71 (10 fold serial dilution from 10^6 PFU to 10^4 PFU) was incubated in a 96-well plate coated with galectin-1.
It means that the monosaccharides such as glucose may first bind to EV71 during the formation of EV71 viral particles, and the monosaccharides bound on EV71 may further participate in the binding between EV71 and galactin-1.

Chain of EV71 binding to galectin-1 (P09382 2-135 limits assumed): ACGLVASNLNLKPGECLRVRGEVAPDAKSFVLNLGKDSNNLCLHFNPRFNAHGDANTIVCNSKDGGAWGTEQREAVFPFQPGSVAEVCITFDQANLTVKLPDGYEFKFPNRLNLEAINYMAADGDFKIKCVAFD

Compound	binding of EV71 to monosaccharide (FIG. 1A) [1]	binding activity between EV71 and monosaccharide versus amount of EV71 (FIG. 1B) [1]	effect on binding between EV71 and lectins (galectin-1) by competition (FIG. 3) [2]	production of EV71 on SK-N-SH cells, virus titer (FIG. 4A) [3]	production of EV71 on SK-N-SH cells, absorption stage (FIG. 4B) [3]	specific binding to EV71 (FIG. 1D) [4]	binding activity to CB2 (FIGS. 1E, 1F) [5]	binding activity to CB3 (FIGS. 1E, 1F) [6]	specific binding to CA16 (FIGS. 1E, 1F) [7]	binding activity to EV71 (FIGS. 1E, 1F) ([4]; 10^6 PFU, plate coated with glucose-PAA or galactose-PAA)	binding of galectin-1 to CA16 (FIG. 2D) [8]	binding of galectin-1 to dengue virus (FIG. 2D) [9]	binding of galectin-1 to influenza virus (FIG. 2D) [10]	binding to galectin-1 of EV71 incubated in sugar-free medium (FIG. 2E) ([11]; 10^6 PFU EV71 incubated in glucose-free medium)	binding of galectin-1 to EV71 (FIG. 2D) ([11]; 10^6 PFU of virus, galectin-1 coated plate, OD450)	binding of EV71 to galectin-1 (FIG. 2C) ([11]; EV71 10 fold serial dilution from 10^6 PFU to 10^4 PFU, bound amount increases with EV71 added)
CC(=O)N[C@H]1C(O)O[C@H](CO)[C@H](O)[C@@H]1O (some centres unmarked) [N-acetyl-galactosamine]	can bind	enhanced as the amount of EV71 was increased	partially inhibited	enhance the production of EV71	enhance the production of EV71	can specifically bind	–	–	–	–	–	–	–	–	–	–
CC(=O)N[C@H]1C(O)O[C@H](CO)[C@@H](O)[C@@H]1O (some centres unmarked) [N-acetyl-glucosamine]	–	–	–	–	–	can specifically bind	–	–	–	–	–	–	–	–	–	–
O=C[C@H](O)[C@@H](O)[C@@H](O)[C@H](O)CO [galactose]	can bind	enhanced as the amount of EV71 was increased	partially inhibited	enhance the production of EV71	enhance the production of EV71	can specifically bind	do not show any binding activity	do not show any binding activity	can specifically bind	high binding activity	–	–	–	–	–	–
galactin-1: mammalian lectin such as galectin-1, coated on 96-well plate	–	–	–	–	–	–	–	–	–	–	specifically binds	does not bind	does not bind	cannot bind	specifically binds	binds
